# Measured values taken from patent US10813926B2, “Morphinan compounds” (Concert Pharmaceuticals, Inc., priority 2008, dated 2020).
# Counter-ions that a name gives are not always drawn.
# Assays:
# Human CYP2D6 SUPERSOMES = target: T1, Human CYP2D6 SUPERSOMES (Homo sapiens, UniProt P10635); test: Metabolic stability in CYP2D6 SUPERSOMES; type: in vitro ADME; conditions: 50 pmol/mL CYP2D6 SUPERSOMES, 1 μM test compound, 2 mM NADPH, 37° C., 0-30 minutes, triplicate
# T1 construct: purchased GenTest (Woburn, Mass., USA)
# Protocol: (§1) Human CYP2D6 SUPERSOMES™ were purchased from GenTest (Woburn, Mass., USA). 7.5 mM stock solutions of test compounds (Compounds 100, 102, 104, 106, dextromethorphan, a deuterated analog of dextromethorphan wherein each methyl group was replaced with CD3 (“d6-dextromethorphan”, chemical name (+)-3-d3-methoxy-17-d3-methyl-(9α,13α,14α)-morphinan, also referred to as Compound 101 in U.S. Ser. No. 12/112,936, and as “Test Compound” in FIG. 1 and Table 2 below), the ethyl ether analog of dextromethorphan (“dextroethorphan”) or the isopropyl ether analog of dextromethorphan (“dextroisoproporphan”)) were prepared in DMSO. The 7.5 mM stock solutions were diluted to 50 μM in acetonitrile (ACN). The 1000 pmol/mL CYP2D6 supersomes were diluted to 62.5 pmol/mL in 0.1 M potassium phosphate buffer, pH 7.4, containing 3 mM MgCl2. The diluted SUPERSOMES™ were added to wells of a 96-well deep-well polypropylene plate in triplicate. 10 μL of the 50 μM test compound was added to the supersomes and the mixture was pre-warmed for 10 minutes. Reactions were initiated by addition of pre-warmed NADPH solution. The final reaction volume was 0.5 mL and contained 50 pmol/mL CYP2D6 SUPERSOMES™, 1 μM test compound, and 2 mM NADPH in 0.1 M potassium phosphate buffer, pH 7.4, and 3 mM MgCl2. The reaction mixtures were incubated at 37° C. and 50 μL aliquots were removed at 0, 5, 10, 20, and 30 minutes and added to shallow-well 96-well plates which contained 50 μL of ice-cold ACN with internal standard to stop the reactions. The plates were stored at 4° C. for 20 minutes after which 100 μL of water was added to the wells of the plate before centrifugation to pellet precipitated proteins. Supernatants were transferred to another 96-well plate and analyzed for amounts of parent remaining by LC-MS/MS using an Applied Bio-systems API 4000 mass spectrometer.
# (§2) The in vitro half-life (t1/2) for each of the test compounds was calculated from the slopes of the linear regression of % parent remaining (ln) vs incubation time relationship: in vitro t1/2=0.693/k, where k=−[slope of linear regression of % parent remaining(ln) vs incubation time]. Data analysis was performed using Microsoft Excel Software.
# [1] = Metabolic stability using human liver microsomes; type: in vitro ADME; conditions: for t1/2 ± SD, calculated half-life in human liver microsomes / half-life at 1 μM: 1.0 mg/mL human liver microsomes, 1 μM test compound, 2 mM NADPH, 37° C., triplicate; for half-life at 1 μM: pH 7.4, read-out: t1/2 ± SD, calculated half-life in human liver microsomes
# Protocol: Human liver microsomes (20 mg/mL) were obtained from Xenotech, LLC (Lenexa, Kans.). β-nicotinamide adenine dinucleotide phosphate, reduced form (NADPH), magnesium chloride (MgCl2), and dimethyl sulfoxide (DMSO) were purchased from Sigma-Aldrich.
# 7.5 mM stock solutions of test compounds were prepared in DMSO. The 7.5 mM stock solutions were diluted to 50 μM in acetonitrile (ACN). The 20 mg/mL human liver microsomes were diluted to 1.25 mg/mL (1 mg/mL final) in 0.1 M potassium phosphate buffer, pH 7.4, containing 3 mM MgCl2. The diluted microsomes (375 μL) were added to wells of a 96-well polypropylene plate in triplicate. 10 μL of the 50 μM test compound was added to the microsomes and the mixture was pre-warmed for 10 minutes. Reactions were initiated by addition of 125 μL of pre-warmed NADPH solution. The final reaction volume was 0.5 mL and contained 1.0 mg/mL human liver microsomes, 1 μM test compound, and 2 mM NADPH in 0.1 M potassium phosphate buffer, pH 7.4, and 3 mM MgCl2. The reaction mixtures were incubated at 37° C., and 50 μL aliquots were removed at 0, 5, 10, 20, and 30 minutes and added to shallow 96-well plates which contained 50 μL of ice-cold ACN with internal standard to stop the reactions. The plates were stored at 4° C. for 20 minutes after which 100 μL of water was added to the wells of the plate before centrifugation to pellet precipitated proteins. Supernatants were transferred to another 96-well plate and analyzed for amounts of parent remaining by LC-MS/MS using an Applied Bio-systems API 4000 mass spectrometer.
# 7-ethoxy coumarin was used as a positive control.
# The in vitro t1/2s for test compounds were calculated from the slopes of the linear regression of % parent remaining (ln) vs incubation time relationship:
# in vitro t1/2=0.693/k, where k=−[slope of linear regression of % parent remaining(ln) vs incubation time]
# Data Analysis was Performed Using Microsoft Excel Software.
# CYP2D6 = target: T2, CYP2D6 (Homo sapiens, UniProt P10635); test: Metabolic stability in CYP2D6 SUPERSOMES; type: in vitro ADME; conditions: human, recombinant human CYP2D6 SUPERSOMES, pH 7.4; 50 pmol/mL CYP2D6 SUPERSOMES, 1 μM test compound, 2 mM NADPH, 37° C., 0-30 minutes, triplicate; read-out: t1/2 ± SD, calculated half-life in SUPERSOMES
# T2 construct: purchased GenTest (Woburn, Mass., USA)
# Protocol: as §1, §2
# [2] = healthy human males; cited from earlier work
# [3] = Table 3, vs dextroethorphan or dextroisoproporphan
# T2 sequence (P10635 whole entry): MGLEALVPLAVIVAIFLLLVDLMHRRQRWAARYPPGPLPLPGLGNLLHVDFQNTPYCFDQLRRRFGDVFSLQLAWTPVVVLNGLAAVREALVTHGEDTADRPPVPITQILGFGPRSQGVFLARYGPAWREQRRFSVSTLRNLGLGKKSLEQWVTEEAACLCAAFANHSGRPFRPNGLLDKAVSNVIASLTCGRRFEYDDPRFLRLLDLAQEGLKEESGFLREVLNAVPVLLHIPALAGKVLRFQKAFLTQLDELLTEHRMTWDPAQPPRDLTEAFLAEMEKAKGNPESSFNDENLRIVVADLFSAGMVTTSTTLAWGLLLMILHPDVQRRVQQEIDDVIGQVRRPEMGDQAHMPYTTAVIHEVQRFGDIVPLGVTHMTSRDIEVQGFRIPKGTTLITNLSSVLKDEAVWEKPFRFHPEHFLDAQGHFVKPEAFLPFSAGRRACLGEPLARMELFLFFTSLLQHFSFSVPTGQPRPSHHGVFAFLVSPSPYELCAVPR
# T1 sequence (P10635 whole entry): as above
compound,measurement,setting,value
"[2H]C([2H])([2H])N1CC[C@@]23CCCC[C@@H]2[C@@H]1Cc1ccc(OC([2H])([2H])C([2H])([2H])[2H])cc13 [Compound 100, (+)-3-(Ethoxy-d5)-17-(methyl-d3)-(9α,13α,14α)-morphinan hydrochloride]","t1/2 ± SD, calculated half-life in SUPERSOMES",Human CYP2D6 SUPERSOMES,51.3 ± 3.7 min
same,"t1/2 ± SD, calculated half-life in human liver microsomes",[1]; Table 3,59.2 ± 1.7 min
same,Change over non-deuterated compound (half-life),[1]; [3],109%
"[2H]C([2H])([2H])N1CC[C@@]23CCCC[C@@H]2[C@@H]1Cc1ccc(OC([2H])(C([2H])([2H])[2H])C([2H])([2H])[2H])cc13 [Compound 102, (+)-3-(Isopropoxy-d7)-17-(methyl-d3)-(9α,13α,14α)-morphinan]",half-life at 1 μM,CYP2D6,39 ± 1.9 min
same,Change over non-deuterated compound (half-life),[1]; [3],69%
same,half-life at 1 μM,[1]; Table 3,61 ± 0.4 min
"[2H]C([2H])([2H])C([2H])([2H])Oc1ccc2c(c1)[C@]13CCCC[C@@H]1[C@H](C2)N(C)CC3 [Compound 104, (+)-3-(Ethoxy-d5)-17-methyl-(9α,13α,14α)-morphinan hydrochloride]","t1/2 ± SD, calculated half-life in SUPERSOMES",Human CYP2D6 SUPERSOMES,49.1 ± 4.1 min
same,"t1/2 ± SD, calculated half-life in human liver microsomes",[1]; Table 3,59.1 ± 2.2 min
same,Change over non-deuterated compound (half-life),[1]; [3],109%
"[2H]C([2H])([2H])C([2H])(Oc1ccc2c(c1)[C@]13CCCC[C@@H]1[C@H](C2)N(C)CC3)C([2H])([2H])[2H] [Compound 106, (+)-3-(Isopropoxy-d7)-17-methyl-(9α,13α,14α)-morphinan]",half-life at 1 μM,CYP2D6,36 ± 2.8 min
same,Change over non-deuterated compound (half-life),[1]; [3],91%
same,half-life at 1 μM,[1]; Table 3,68.8 ± 0.9 min
"[2H]C([2H])([2H])c1ccc2c(c1)[C@]13CCCC[C@@H]1[C@H](C2)N(C)CC3 [Compound 108, (+)-3-(Methyl-d3)-17-methyl-(9α,13α,14α)-morphinan]",Change over non-deuterated compound (half-life),"[1]; Table 4, vs dimemorfan",21%
"[2H]C([2H])([2H])c1ccc2c(c1)[C@]13CCCC[C@@H]1[C@H](C2)N(C([2H])([2H])[2H])CC3 [Compound 110, (+)-3-(Methyl-d3)-17-(methyl-d3)-(9α,13α,14α)-morphinan]",Change over non-deuterated compound (half-life),"[1]; Table 4, vs dimemorfan",37%
"CCOc1ccc2c(c1)[C@@]13CCCC[C@H]1[C@@H](C2)N(C)CC3 [Dextroethorphan, (+)-3-ethoxy-17-methylmorphinan, reference compound]","t1/2 ± SD, calculated half-life in SUPERSOMES",Human CYP2D6 SUPERSOMES,10.3 ± 2.1 min
same,"t1/2 ± SD, calculated half-life in human liver microsomes",[1]; Table 3,28.3 ± 0.6 min
"CC(C)Oc1ccc2c(c1)[C@@]13CCCC[C@H]1[C@@H](C2)N(C)CC3 [Dextroisoproporphan, (+)-3-(2-propoxy)-17-methyl-morphinan, reference compound]",half-life at 1 μM,CYP2D6,21.7 ± 1.6 min
same,half-life at 1 μM,[1]; Table 3,36.1 ± 1.6 min
"COc1ccc2c(c1)[C@]13CCCC[C@@H]1[C@H](C2)N(C)CC3 [Dextromethorphan, (+)-3-methoxy-17-methyl-(9α,13α,14α)-morphinan, reference compound]","t1/2 ± SD, calculated half-life in SUPERSOMES",Human CYP2D6 SUPERSOMES,1.7 ± 0.3 min
"Cc1ccc2c(c1)[C@]13CCCC[C@@H]1[C@H](C2)N(C)CC3 [Dimemorfan, (+)-(9α,13α,14α)-3,17-dimethylmorphinan]",fraction of a dose metabolized,[2],Greater than 98%
"[2H]C([2H])([2H])Oc1ccc2c(c1)[C@]13CCCC[C@@H]1[C@H](C2)N(C([2H])([2H])[2H])CC3 [Test Compound, (+)-3-d3-methoxy-17-d3-methyl-(9α,13α,14α)-morphinan, reference compound]","t1/2 ± SD, calculated half-life in SUPERSOMES",Human CYP2D6 SUPERSOMES,5.6 ± 1.5 min
